Assay results: PMC4994278, “Characterization of a glucose-tolerant β-glucosidase from Anoxybacillus sp. DT3-1” (Biotechnology for Biofuels, 2016)

Target: T1, DT-Bgl (Anoxybacillus gonensis, UniProt M5QUM2)
T1 construct: full-length ORF, 453 residues (no signal peptide), pET-28a BamHI/XhoI, Ni-NTA purified (His tag, removal not mentioned), E. coli BL21(DE3), 53 kDa on SDS-PAGE
Test: HPLC of cellobiose hydrolysis with added glucose
Format: biochemical
Conditions: 400000 µM; substrate cellobiose (1% w/v in substrate assay), 100 mM glycine-NaOH pH 8.5, 60 °C; product inhibition

## OC[C@H]1OC(O)[C@H](O)[C@@H](O)[C@@H]1O (stereo partly shown) [glucose]
  % relative activity in 0.4 M glucose: 54%
